Experiment [1] deals with T1, human cannabinoid CB1 receptor (Homo sapiens, UniProt P21554).
T1 construct: expressed in transfected cells; host or cells: Chinese hamster ovary (CHO) cells, stably transfected; membrane preparations
As to the kind of experiment: CB1 receptor affinity, [3H]CP-55,940 radioligand displacement on CHO cell membrane preparations. The class given is binding. As for the experimental part:
CB1 receptor affinities can be determined using membrane preparations of Chinese hamster ovary (CHO) cells in which the human cannabinoid CB1 receptor is stably transfected (Biochem J. 1991, 279, 129-134) in conjunction with [3H]CP-55,940 as radioligand. After incubation of a freshly prepared cell membrane preparation with the [3H]-radioligand, with or without addition of test compound, separation of bound and free ligand is performed by filtration over glass fiber filters. Radioactivity on the filter is measured by liquid scintillation counting. The IC50 values can be determined from at least three independent measurements.
The CB1 IC50 values for tested compounds are as follows.
Background: Displacement assays read how much labelled ligand stays bound in the presence of the test substance.

The conditions of experiment [2]: type 2 diabetes patients not on other anti-diabetic medications; six months of treatment; baseline value 7.9; placebo reduction 0.3%; cited from earlier work.

Here are results for 28 compounds from US8580768B2, “Cannabinoid receptor antagonists-inverse agonists useful for treating metabolic disorders, including obesity and diabetes” (Jenrin Discovery, Inc., priority 2010, dated 2013).

Structures are written as SMILES. pIC50: −log10 of the molar value. Read-outs that look alike come from different tables or passages of the source.

The term pIC50 denotes the IC50 on a negative log10 scale, so that one unit is a factor of ten.

T1 sequence (P21554 whole entry): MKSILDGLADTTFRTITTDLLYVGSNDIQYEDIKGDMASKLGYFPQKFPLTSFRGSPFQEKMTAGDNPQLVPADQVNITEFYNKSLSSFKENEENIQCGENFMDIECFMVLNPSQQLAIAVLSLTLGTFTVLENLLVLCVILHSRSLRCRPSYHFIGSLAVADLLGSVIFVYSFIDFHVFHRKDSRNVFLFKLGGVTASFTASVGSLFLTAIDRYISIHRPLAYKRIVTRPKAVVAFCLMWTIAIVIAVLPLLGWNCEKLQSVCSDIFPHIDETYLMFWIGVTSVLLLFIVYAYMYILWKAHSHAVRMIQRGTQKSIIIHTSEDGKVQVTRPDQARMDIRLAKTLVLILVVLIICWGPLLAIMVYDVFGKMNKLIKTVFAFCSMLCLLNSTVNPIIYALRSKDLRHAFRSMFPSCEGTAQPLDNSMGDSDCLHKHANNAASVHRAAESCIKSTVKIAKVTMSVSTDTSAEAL

On to `CCOP(=O)(OCC)C(C)NC(=NS(=O)(=O)c1ccc(Cl)cc1)N1CC(c2ccccc2)C(c2ccc(Cl)cc2)=N1` (stereo not shown) [compound 28], for which, in experiment [1], the pIC50 was 5.00 to 6.00.

For `N#Cc1cccc(S(=O)(=O)N=C(NC(C(N)=O)C2CCC2)N2CC(c3ccccc3)C(c3ccc(Cl)cc3)=N2)c1` (stereo not shown) [compound 22], in experiment [1] (read-out: CB1 IC50), the negative-log IC50 (pIC50) is greater than 7.00.

Consider `N#Cc1cccc(S(=O)(=O)N=C(NC2(C(N)=O)CCC2)N2CC(c3ccccc3)C(c3ccc(Cl)cc3)=N2)c1` (stereo not shown) [compound 17], for which, in experiment [1] (read-out: CB1 IC50), the pIC50 was greater than 7.00.

As to `COc1cccc(S(=O)(=O)N=C(NCCS(N)(=O)=O)N2CC(c3ccccc3)C(c3ccc(Cl)cc3)=N2)c1` (stereo not shown) [compound 14], in experiment [1] (read-out: CB1 IC50), the pIC50 is greater than 7.00.

Take `CC(O)C(NC(=NS(=O)(=O)c1ccc(Cl)cc1)N1CC(c2ccccc2)C(c2ccc(Cl)cc2)=N1)C(N)=O` (stereo not shown) [compound 7]: the pIC50 in experiment [1] (read-out: CB1 IC50) is greater than 7.00.

Regarding `Cc1c(C(=O)NN2CCCCC2)nn(-c2ccc(Cl)cc2Cl)c1-c1ccc(Cl)cc1` [rimonabant], the HbA1c levels lowered in experiment [2] was 0.8%.

As for `COc1cccc(S(=O)(=O)N=C(NC2(C(N)=O)CCC2)N2CC(c3ccccc3)C(c3ccc(Cl)cc3)=N2)c1` (stereo not shown) [compound 10], the pIC50 in experiment [1] (read-out: CB1 IC50) is greater than 7.00.

In the case of `NS(=O)(=O)CCNC(=O)C(CO)NC(=NS(=O)(=O)c1ccc(Cl)cc1)N1CC(c2ccccc2)C(c2ccc(Cl)cc2)=N1` (stereo not shown) [compound 26], the pIC50 in experiment [1] (read-out: CB1 IC50) was greater than 7.00.

Turning to `CC(NC(=NS(=O)(=O)c1cccc(C#N)c1)N1CC(c2ccccc2)C(c2ccc(Cl)cc2)=N1)C(N)=O` (stereo not shown) [compound 16], the pIC50 in experiment [1] (read-out: CB1 IC50) was greater than 7.00.

For `CC(C)C(NC(=NS(=O)(=O)c1cccc(C(N)=O)c1)N1CC(c2ccccc2)C(c2ccc(Cl)cc2)=N1)C(N)=O` (stereo not shown) [compound 4], the pIC50 in experiment [1] (read-out: CB1 IC50) was 6.00 to 7.00.

On to `NS(=O)(=O)CCNC(=NS(=O)(=O)c1ccc(Cl)cc1)N1CC(c2ccccc2)C(c2ccc(Cl)cc2)=N1` (stereo not shown) [compound 3], for which the negative logarithm of the IC50 (pIC50) in experiment [1] (read-out: CB1 IC50) is greater than 7.00.

As to `N#Cc1cccc(S(=O)(=O)N=C(NCCS(N)(=O)=O)N2CC(c3ccccc3)C(c3ccc(Cl)cc3)=N2)c1` (stereo not shown) [compound 15], the pIC50 in experiment [1] (read-out: CB1 IC50) was greater than 7.00.

As to `NC(CCNC(=NS(=O)(=O)c1ccc(Cl)cc1)N1CC(c2ccccc2)C(c2ccc(Cl)cc2)=N1)=NO` (stereo not shown) [compound 8], in experiment [1] (read-out: CB1 IC50), the pIC50 was greater than 7.00.

Regarding `NC(=O)C(CO)NC(=NS(=O)(=O)c1ccc(Cl)cc1)N1CC(c2ccccc2)C(c2ccc(Cl)cc2)=N1` (stereo not shown) [compound 2], the pIC50 in experiment [1] (read-out: CB1 IC50) was greater than 7.00.

`COc1ccc(C2=NN(C(=NS(=O)(=O)c3ccc(Cl)cc3)NCCS(N)(=O)=O)CC2c2ccccc2)cc1` (stereo not shown) [compound 20]: the pIC50 in experiment [1] (read-out: CB1 IC50) is greater than 7.00.

Regarding `NC(CNC(=NS(=O)(=O)c1ccc(Cl)cc1)N1CC(c2ccccc2)C(c2ccc(Cl)cc2)=N1)=NO` (stereo not shown) [compound 6], the negative logarithm of the IC50 (pIC50) in experiment [1] (read-out: CB1 IC50) is greater than 7.00.

Consider `COc1ccc(C2=NN(C(=NS(=O)(=O)c3ccc(Cl)cc3)NC(C)C(N)=O)CC2c2ccccc2)cc1` (stereo not shown) [compound 1], for which, in experiment [1] (read-out: CB1 IC50), the pIC50 was greater than 7.00.

`NC(=O)Cc1csc(NC(=NS(=O)(=O)c2ccc(Cl)cc2)N2CC(c3ccccc3)C(c3ccc(Cl)cc3)=N2)n1` (stereo not shown) [compound 27]: the pIC50 in experiment [1] (read-out: CB1 IC50) was 5.00 to 6.00.

For `COc1cccc(S(=O)(=O)N=C(NC(C(N)=O)C2CC2)N2CC(c3ccccc3)C(c3ccc(Cl)cc3)=N2)c1` (stereo not shown) [compound 21], the pIC50 in experiment [1] (read-out: CB1 IC50) was 6.00 to 7.00.

With `CC(O)C(NC(=NS(=O)(=O)c1cccc(C#N)c1)N1CC(c2ccccc2)C(c2ccc(Cl)cc2)=N1)C(N)=O` (stereo not shown) [compound 12], the pIC50 in experiment [1] (read-out: CB1 IC50) was greater than 7.00.

With `CC(O)C(NC(=NS(=O)(=O)c1ccc(Cl)cc1)N1CC(c2ccccc2)C(c2ccc(Cl)cc2)=N1)C(=O)NC(CO)C(N)=O` (stereo not shown) [compound 11], the pIC50 in experiment [1] (read-out: CB1 IC50) is greater than 7.00.

Consider `NS(=O)(=O)CCNC(=O)CNC(=NS(=O)(=O)c1ccc(Cl)cc1)N1CC(c2ccccc2)C(c2ccc(Cl)cc2)=N1` (stereo not shown) [compound 23], for which the pIC50 in experiment [1] (read-out: CB1 IC50) is greater than 7.00.

As to `COc1cccc(S(=O)(=O)N=C(NC(C)C(N)=O)N2CC(c3ccccc3)C(c3ccc(Cl)cc3)=N2)c1` (stereo not shown) [compound 18], the pIC50 in experiment [1] (read-out: CB1 IC50) was greater than 7.00.

In the case of `CC(C)C(NC(=NS(=O)(=O)c1cccc(C(=N)N)c1)N1CC(c2ccccc2)C(c2ccc(Cl)cc2)=N1)C(N)=O` (stereo not shown) [compound 9], in experiment [1] (read-out: CB1 IC50), the pIC50 is 6.00 to 7.00.

Regarding `CC(O)C(NC(=NS(=O)(=O)c1ccc(Cl)cc1)N1CC(c2ccccc2)C(c2ccc(Cl)cc2)=N1)C(=O)NCCS(N)(=O)=O` (stereo not shown) [compound 25], in experiment [1] (read-out: CB1 IC50), the pIC50 is greater than 7.00.

Regarding `CC(C)C(NC(=NS(=O)(=O)c1cccc(C#N)c1)N1CC(c2ccccc2)C(c2ccc(Cl)cc2)=N1)C(N)=O` (stereo not shown) [compound 5], the pIC50 in experiment [1] (read-out: CB1 IC50) is greater than 7.00.

As to `COC(=O)C=CCNC(=NS(=O)(=O)c1ccc(Cl)cc1)N1CC(c2ccccc2)C(c2ccc(Cl)cc2)=N1` (stereo not shown) [compound 24], the pIC50 in experiment [1] (read-out: CB1 IC50) is greater than 7.00.

Take `CC(O)C(NC(=NS(=O)(=O)c1cccc(C(=N)N)c1)N1CC(c2ccccc2)C(c2ccc(Cl)cc2)=N1)C(N)=O` (stereo not shown) [compound 13]: the pIC50 in experiment [1] (read-out: CB1 IC50) is greater than 7.00.
